Test results from patent US10125129B2 (priority 2016, dated 2018).

Target: T1, μ opioid receptor (MOR) (Homo sapiens, UniProt P35372)
T1 construct: expressed in transfected cells
Test: cell-based
Type: cell-based
Settings: EC50

T1 sequence (P35372 whole entry): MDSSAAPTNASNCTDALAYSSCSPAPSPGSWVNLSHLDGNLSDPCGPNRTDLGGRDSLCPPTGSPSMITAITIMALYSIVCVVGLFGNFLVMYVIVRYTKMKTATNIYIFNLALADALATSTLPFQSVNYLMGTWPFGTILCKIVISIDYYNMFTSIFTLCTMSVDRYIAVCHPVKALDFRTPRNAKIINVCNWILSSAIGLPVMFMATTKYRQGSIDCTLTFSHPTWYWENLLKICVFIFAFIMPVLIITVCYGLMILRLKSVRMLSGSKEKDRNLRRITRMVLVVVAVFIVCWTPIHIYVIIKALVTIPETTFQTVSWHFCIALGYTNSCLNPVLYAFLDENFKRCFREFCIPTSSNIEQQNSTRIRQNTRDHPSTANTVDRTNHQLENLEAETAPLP

`COC(=O)[C@@H]1C=C(OC(=O)c2cncs2)C(=O)[C@H]2[C@@]1(C)CC[C@H]1C(=O)O[C@H](c3ccoc3)C[C@]21C` [Table 3 Entry 8, (2S,4aR,6aR,7R,10aR,10bR)-2-(Furan-3-yl)-7-(methoxycarbonyl)-6a,10b-dimethyl-4,10-dioxo-2,4,4a,5,6,6a,7,10,10a,10b-decahydro-1H-benzo[f]isochromen-9-yl thiazole-5-carboxylate] and `COC(=O)[C@@H]1C=C(OC(=O)c2cnco2)C(=O)[C@H]2[C@@]1(C)CC[C@H]1C(=O)O[C@H](c3ccoc3)C[C@]21C` [Table 3 Entry 10, (2S,4aR,6aR,7R,10aR,10bR)-2-(Furan-3-yl)-7-(methoxycarbonyl)-6a,10b-dimethyl-4,10-dioxo-2,4,4a,5,6,6a,7,10,10a,10b-decahydro-1H-benzo[f]isochromen-9-yl oxazole-5-carboxylate] cannot be ordered by EC50: > 10 µM for the first, > 10 µM for the second.

With `COC(=O)[C@@H]1C=C(OC(=O)Cc2ccccc2)C(=O)[C@H]2[C@@]1(C)CC[C@H]1C(=O)O[C@H](c3ccoc3)C[C@]21C` [Table 3 Entry 4, (2S,4aR,6aR,7R,10aR,10bR)-Methyl 2-(furan-3-yl)-6a,10bdimethyl-4,10-dioxo-9-(2-phenylacetoxy)-2,4,4a,5,6,6a,7,10a,10b-decahydro-1Hbenzo[f]isochromene-7-carboxylate] the EC50 was 0.13 ± 0.05 µM.

Same assay, conditions: Series 1 EC50

First: COC(=O)[C@@H]1C[C@H](OC(=O)c2ccc(C)cc2)C(=O)[C@H]2[C@@]1(C)CC[C@H]1C(=O)O[C@H](c3ccoc3)C[C@]21C [Series 1 Entry 13, (2S,4aR,6aR,7R,9S,10aS,10bR)-Methyl 2-(furan-3-yl)-6a,10b-dimethyl-9-((4-methylbenzoyl)oxy)-4,10-dioxododecahydro-1H-benzo[f]isochromene-7-carboxylate]
Second: COC(=O)[C@@H]1C[C@H](OC(=O)c2ccc(Cl)cc2)C(=O)[C@H]2[C@@]1(C)CC[C@H]1C(=O)O[C@H](c3ccoc3)C[C@]21C [Series 1 Entry 7, (2S,4aR,6aR,7R,9S,10aS,10bR)-Methyl 9-((4-chlorobenzoyl)oxy)-2-(furan-3-yl)-6a,10b-dimethyl-4,10-dioxododecahydro-1H-benzo[f]isochromene-7-carboxylate]
The EC50 of the first is 1.6-fold lower: 0.43 ± 0.01 µM for the first, 0.7 ± 0.1 µM for the second. The first is the more potent here.

Compared with `COC(=O)[C@@H]1C[C@H](OC(=O)c2ccccc2[N+](=O)[O-])C(=O)[C@H]2[C@@]1(C)CC[C@H]1C(=O)O[C@H](c3ccoc3)C[C@]21C` [Series 1 Entry 2], `COC(=O)[C@@H]1C[C@H](OC(=O)c2ccccc2Cl)C(=O)[C@H]2[C@@]1(C)CC[C@H]1C(=O)O[C@H](c3ccoc3)C[C@]21C` [Series 1 Entry 5, (2S,4aR,6aR,7R,9S,10aS,10bR)-Methyl 9-((2-chlorobenzoyl)oxy)-2-(furan-3-yl)-6a,10b-dimethyl-4,10-dioxododecahydro-1H-benzo[f]isochromene-7-carboxylate] is 1.7-fold higher in EC50: 2 ± 1 µM for the first, 3.4 ± 0.2 µM for the second.

Going from `COC(=O)[C@@H]1C[C@H](OC(=O)c2cccc(Cl)c2)C(=O)[C@H]2[C@@]1(C)CC[C@H]1C(=O)O[C@H](c3ccoc3)C[C@]21C` [Series 1 Entry 6, (2S,4aR,6aR,7R,9S,10aS,10bR)-Methyl 9-((3-chlorobenzoyl)oxy)-2-(furan-3-yl)-6a,10b-dimethyl-4,10-dioxododecahydro-1H-benzo[f]isochromene-7-carboxylate] to `COC(=O)[C@@H]1C[C@H](OC(=O)c2cccc(F)c2)C(=O)[C@H]2[C@@]1(C)CC[C@H]1C(=O)O[C@H](c3ccoc3)C[C@]21C` [Series 1 Entry 9, (2S,4aR,6aR,7R,9S,10aS,10bR)-Methyl 9-((3-fluorobenzoyl)oxy)-2-(furan-3-yl)-6a,10b-dimethyl-4,10-dioxododecahydro-1H-benzo[f]isochromene-7-carboxylate], the EC50 falls from 2.4 ± 0.1 µM to 0.46 ± 0.08 µM (5.2-fold).

Going from `COC(=O)[C@@H]1C[C@H](OC(=O)c2cccc(C)c2)C(=O)[C@H]2[C@@]1(C)CC[C@H]1C(=O)O[C@H](c3ccoc3)C[C@]21C` [Series 1 Entry 12, (2S,4aR,6aR,7R,9S,10aS,10bR)-Methyl 2-(furan-3-yl)-6a,10b-dimethyl-9-((3-methylbenzoyl)oxy)-4,10-dioxododecahydro-1H-benzo[f]isochromene-7-carboxylate] to `COC(=O)[C@@H]1C[C@H](OC(=O)c2cccc(OC)c2)C(=O)[C@H]2[C@@]1(C)CC[C@H]1C(=O)O[C@H](c3ccoc3)C[C@]21C` [Series 1 Entry 15], the EC50 falls from 1.8 ± 0.3 µM to 0.33 ± 0.02 µM (5.5-fold).

`COC(=O)[C@@H]1C[C@H](OC(=O)c2cccs2)C(=O)[C@H]2[C@@]1(C)CC[C@H]1C(=O)O[C@H](c3ccoc3)C[C@]21C` [Series 1 Entry 20] and `COC(=O)[C@@H]1C[C@H](OC(=O)c2ccncc2)C(=O)[C@H]2[C@@]1(C)CC[C@H]1C(=O)O[C@H](c3ccoc3)C[C@]21C` [Series 1 Entry 19, (2S,4aR,6aR,7R,9S,10aS,10bR)-2-(furan-3-yl)-7-(methoxycarbonyl)-6a,10b-dimethyl-4,10-dioxododecahydro-2H-benzo[f]isochromen-9-yl isonicotinate] are within error of each other in EC50: 0.33 ± 0.07 µM for the first, 0.34 ± 0.01 µM for the second.

For `COC(=O)[C@@H]1C[C@H](OC(=O)c2ccc(F)cc2)C(=O)[C@H]2[C@@]1(C)CC[C@H]1C(=O)O[C@H](c3ccoc3)C[C@]21C` [Series 1 Entry 10, (2S,4aR,6aR,7R,9S,10aS,10bR)-Methyl 9-((4-fluorobenzoyl)oxy)-2-(furan-3-yl)-6a,10b-dimethyl-4,10-dioxododecahydro-1H-benzo[f]isochromene-7-carboxylate], the EC50 was 0.8 ± 0.2 µM.

Same assay, conditions: Series 2 EC50

`COC(=O)[C@@H]1C=C(OC(=O)c2ccsc2)C(=O)[C@H]2[C@@]1(C)CC[C@H]1C(=O)O[C@H](c3ccoc3)C[C@]21C` [Series 2 Entry 21, (2S,4aR,6aR,7R,10aR,10bR)-Methyl 2-(furan-3-yl)-6a,10bdimethyl-4,10-dioxo-9-((thiophene-3-carbonyl)oxy)-2,4,4a,5,6,6a,7,10,10a,10b-decahydro-1H-benzo[f]isochromene-7-carboxylate] and `COC(=O)[C@@H]1C=C(OC(=O)c2cccs2)C(=O)[C@H]2[C@@]1(C)CC[C@H]1C(=O)O[C@H](c3ccoc3)C[C@]21C` [Series 2 Entry 20, (2S,4aR,6aR,7R,6aR,7R,10aR,10bR)-Methyl 2-(furan-3-yl)-6a,10bdimethyl-4,10-dioxo-9-((thiophene-2-carbonyl)oxy)-2,4,4a,5,6,6a,7,10,10a,10b-decahydro-1H-benzo[f]isochromene-7-carboxylate] are within error of each other in EC50: 0.0013 ± 0.0009 µM for the first, 0.0014 ± 0.0008 µM for the second.

Going from `COC(=O)[C@@H]1C=C(OC(=O)c2cccc(C)c2)C(=O)[C@H]2[C@@]1(C)CC[C@H]1C(=O)O[C@H](c3ccoc3)C[C@]21C` [Series 2 Entry 12, (2S,4aR,6aR,7R,10aR,10bR)-Methyl 2-(furan-3-yl)-6a,10b-dimethyl-9-((3-methylbenzoyl)oxy)-4,10-dioxo-2,4,4a,5,6,6a,7,10,10a,10b-decahydro-1H-benzo[f]isochromene-7-carboxylate] to `COC(=O)[C@@H]1C=C(OC(=O)c2cccc(Cl)c2)C(=O)[C@H]2[C@@]1(C)CC[C@H]1C(=O)O[C@H](c3ccoc3)C[C@]21C` [Series 2 Entry 6, (2S,4aR,6aR,7R,10aR,10bR)-Methyl 9-((3-chlorobenzoyl)oxy)-2-(furan-3-yl)-6a,10b-dimethyl-4,10-dioxo-2,4,4a,5,6,6a,7,10,10a,10b-decahydro-1H-benzo[f]isochromene-7-carboxylate], the EC50 rises from 0.16 ± 0.03 µM to 0.25 ± 0.03 µM (1.6-fold). The first is the more potent here.

Compared with `COC(=O)[C@@H]1C=C(OC(=O)c2ccccc2Cl)C(=O)[C@H]2[C@@]1(C)CC[C@H]1C(=O)O[C@H](c3ccoc3)C[C@]21C` [Series 2 Entry 5, (2S,4aR,6aR,7R,10aR,10bR)-Methyl 9-((2-chlorobenzoyl)oxy)-2-(furan-3-yl)-6a,10b-dimethyl-4,10-dioxo-2,4,4a,5,6,6a,7,10,10a,10b-decahydro-1H-benzo[f]isochromene-7-carboxylate], `COC(=O)[C@@H]1C=C(OC(=O)c2ccc(Cl)cc2)C(=O)[C@H]2[C@@]1(C)CC[C@H]1C(=O)O[C@H](c3ccoc3)C[C@]21C` [Series 2 Entry 7, (2S,4aR,6aR,7R,10aR,10bR)-Methyl 9-((4-chlorobenzoyl)oxy)-2-(furan-3-yl)-6a,10b-dimethyl-4,10-dioxo-2,4,4a,5,6,6a,7,10,10a,10b-decahydro-1H-benzo[f]isochromene-7-carboxylate] is 10-fold lower in EC50: 0.29 ± 0.02 µM for the first, 0.029 ± 0.008 µM for the second. The second is the more potent here.

First: COC(=O)[C@@H]1C=C(OC(=O)c2cccnc2)C(=O)[C@H]2[C@@]1(C)CC[C@H]1C(=O)O[C@H](c3ccoc3)C[C@]21C [Series 2 Entry 18, (2S,4aR,6aR,7R,10aR,10bR)-2-(Furan-3-yl)-7-(methoxycarbonyl)-6a,10b-dimethyl-4,10-dioxo-2,4,4a,5,6,6a,7,10,10a,10b-decahydro-H-benzo[f]isochromen-9-yl nicotinate]
Second: COC(=O)[C@@H]1C=C(OC(=O)c2ccncc2)C(=O)[C@H]2[C@@]1(C)CC[C@H]1C(=O)O[C@H](c3ccoc3)C[C@]21C [Series 2 Entry 19, (2S,4aR,6aR,7R,10aR,10bR)-2-(Furan-3-yl)-7-(methoxycarbonyl)-6a,10b-dimethyl-4,10-dioxo-2,4,4a,5,6,6a,7,10,10a,10bdecahydro-1H-benzo[f]isochromen-9-yl isonicotinate]
The EC50 of the first is 1.8-fold lower: 0.0033 ± 0.0008 µM for the first, 0.006 ± 0.001 µM for the second. The first is the more potent here.

Same assay, conditions: read-out: Series 2 EC50

Compared with `COC(=O)[C@@H]1C=C(OC(=O)c2ccc([N+](=O)[O-])cc2)C(=O)[C@H]2[C@@]1(C)CC[C@H]1C(=O)O[C@H](c3ccoc3)C[C@]21C` [Series 2 Entry 4, (2S,4aR,6aR,7R,10aR,10bR)-Methyl 2-(furan-3-yl)-6a,10b-dimethyl-9-((4-nitrobenzoyl)oxy)-4,10-dioxo-2,4,4a,5,6,6a,7,10,10a,10b-decahydro-1H-benzo[f]isochromene-7-carboxylate], `COC(=O)[C@@H]1C=C(OC(=O)c2ccc(OC)cc2)C(=O)[C@H]2[C@@]1(C)CC[C@H]1C(=O)O[C@H](c3ccoc3)C[C@]21C` [Series 2 Entry 16, (2S,4aR,6aR,7R,10aR,10bR)-Methyl 2-(furan-3-yl)-9-((4-methoxybenzoyl)oxy)-6a,10b-dimethyl-4,10-dioxo-2,4,4a,5,6,6a,7,10,10a,10b-decahydro-1H-benzo[f]isochromene-7-carboxylate] is 3.9-fold lower in EC50: 0.031 ± 0.002 µM for the first, 0.008 ± 0.003 µM for the second. The second is the more potent here.
